Where no end group is shown, it is not given here.
Tests used:
[1] = test system: post-vaccine PBMC of patient 32; assay: Lymphoproliferation of post-vaccine PBMC of patient 32; assay type: cell-based, human; conditions: multiple IVS cycles
[2] = test system: ras p21 codon 12 mutated carcinoma patients; assay: Phase I vaccination of metastatic carcinoma patients with mutant ras 13-mer peptide in Detox adjuvant; assay type: in vivo, human; conditions: patient 32, 0.1 mg/vaccination x3 in Detox adjuvant, s.c.
Excerpt: Patient selection. Adult cancer patients with histologically confirmed diagnosis of adenocarcinoma of the colon, gastrointestinal tract, lung or pancreas with metastatic disease, were screened as potential candidates for this phase I clinical study. Tumor samples from these patients were examined for point mutations in the K-ras gene at codon 12 by polymerase chain reaction (PCR) of paraffin-embedded sections by methods known in the art. In addition to fulfilling all other essential inclusion criteria as specified in the FDA-approved NCI clinical protocol, those patients presenting the appropriate K-ras mutation were then selected for study entry.
Peptides and immunizations. Mutant ras 13-mer peptides used as immunogens were synthesized as clinical grade reagents under GMP conditions (Bachem, Torrance, Calif.: >97% purity by HPLC). Control and additional experimental peptides, which were used in vitro, either were prepared commercially (Bachem) or synthesized in the laboratory on an Applied Biosystems Model 432A personal peptide synthesizer (Foster City, Calif.) using Fmoc chemistry (>90% purity by HPLC). These reagent-grade products were dissolved in aqueous solution at 2 mg/ml, filter-sterilized and stored in aliquots at −70° C. The normal sequence of ras p21 reflecting positions 5-17 is […]([…]) (SEQ. ID NO. 1). […]

[3] = test system: T2 cell line as target of CD8+ CTL line of RAS patient 32; assay: 51Cr-release cytotoxicity of CD8+ CTL line of RAS patient 32 against peptide-pulsed T2 targets; assay type: cell-based, human; conditions: peptide 10 μg/ml, IVS cycle 7 (FIG. 5)
Method: FIG. 5. Cytolytic activity by CD8^+ CTL line of RAS patient 32 is peptide-specific. The CD8^+ CTL line of RAS patient 32 (see FIG. 3) was assayed against the T2 cell line as a target, incubated with and without different ras peptides (10 μg/ml), as shown. In parallel, the extent of NK activity was evaluated against K562 cells. Cytotoxicity was determined by ^51Cr-release, and the results expressed at different E/T ratios following IVS cycle 7. Similar results were observed using the second, independently-derived CD8^+ CTL line as described in Table 6.
IVS cycles for evaluation of CD8^+ T cell responses from HLA-A2+Patients. Freshly-thawed PBMC (from ras patients 32 and 33), derived pre-vaccination and post-third vaccination, were enriched in T lymphocytes by passage over nylon wool columns (Robbins Scientific, Sunnyvale, Calif.) and then depleted of CD4^+ T cells by negative selection via panning on anti-CD4 MAb-coated T25 flasks (Applied Immune Sciences, Santa Clara, Calif.). For the first IVS cycle, CD8^+ enriched lymphocytes (5×10^5/well) were cultured in 24-well plates with irradiated, autologous PBMC (5×10^6/well) as APC which had been preincubated for 3 hours with the appropriate mutant ras peptide ([…]) plus human β2-microglobulin (10 μg/ml) (Calbiochem, San Diego, Calif.). […] IL-2 (10 U/ml) was added 3 days later. After an additional 7 days, viable cells (2-5×10^5/well) were re-cultured by weekly stimulation with APC pre-pulsed with peptide/β2-microglobulin, and IL-2 added one day later. After the third or fourth IVS cycle, autologous PBMC were replaced with EBV-transformed, autologous BLCL (5×10^5/well) as APC. […] CTL activity was evaluated from cultures 5 to 6 days after Ag restimulation.
Cytotoxic response. Cytotoxicity was examined by a conventional ^51Cr-release assay, as described (6). Briefly, target cells (i.e. T2, C1R-A2, BLCL, K562) were radiolabeled with 200 μCi of Na2[^51Cr]04 (Amersham) for 60 minutes at 37° C., followed by thorough washing to remove unincorporated isotope. Effectors and targets (1×10^4/well) were incubated in 96-well, U-bottomed plates (Costar) at various effector target (E/T) ratios in the absence and presence of peptide (+/−monoclonal antibody (MAb) directed against CD4, CD8 or HLA-A2 molecules (clone BB7.2 from ATCC)) for up to 6 hours. After incubation, supernatants were collected using a Supernatant Collection System (Skatron, Sterling, Va.) and radioactivity measured in a γ-counter (Packard Instruments, Downers Grove, Ill.). Cytotoxic activity was defined as percent specific release of ^51Cr and determined by the equation: [(experimentalcpm−spontaneouscpm)/maximumcpm−spontaneouscpm)]×100. Results were expressed as the mean±SEM of triplicate cultures. […]

[4] = test system: HLA-A2+ peptide-pulsed targets; assay: Generation and cytotoxicity of ras4-12(V12)-specific CD8+ CTL line from a normal HLA-A2+ donor; assay type: cell-based, human; conditions: wild-type printed as wild-type ras peptide
human HLA-A2 = target: T1, human HLA-A2 (Homo sapiens, UniProt P04439, D140Y/D185E/D98H/E176V/E277Q/G131W/G231S/I119V/I121R/I166T/I218V/L300P/L318F/N151K/N90K/P208A/P217A/Q86G/Q94H/R138H/R169H/T345S); assay: HLA-A2 binding bioassay on T2 cells (flow cytometry); conditions: T2 bioassay
T1 construct: The 174CEM.T2 cell line (“T2”), (transport deletion mutant); endogenous in cells; host or cells: 174CEM.T2 (T2) human cell line

BALB/c mouse = assay: Induction of MHC class I-restricted CD8+ CTL responses in the mouse; assay type: in vivo, mouse (BALB/c; H-2^d); conditions: H-2^d
Excerpt: The basis of immunogenicity, in part, was attributed to the introduction of the mutated Val12 residue, which created a dominant C-terminus anchor for MHC class I binding. The resulting CD8^+ CTL response, thus, likely reflected T cell receptor recognition of a previously unseen peptide/MHC complex. In contrast to the ras5-14 sequence, ras4-12(V12) only partly shared the consensus motif for HLA-A2 binding, as the leucine anchor shifted from position 2 to 3. Importantly, the introduction of the mutated Val12 residue, as in the mouse, now created a dominant C-terminus anchor. […] (See FIG. 6).

| Binding to HLA-A2 on T2 cells (in words) (human HLA-A2) | Substance | CD4+ proliferative response against immunizing 13-mer peptide [1] | T cell response induced by vaccination [2] | Sensitization of T2 targets for lysis (in words) [3] | Generation of peptide-specific CTL line / lysis of peptide-pulsed targets (in words) [4] | Induction of CD8+ CTL responses in mouse (BALB/c mouse) |
| --- | --- | --- | --- | --- | --- | --- |
| – | Lys-Leu-Val-Val-Val-Gly-Ala-Asp-Gly-Val-Gly-Lys-Ser [ras5-17(Asp12)] | No specific CD4^+ proliferative response was observed | led to peptide-specific CD8^+ CTL activation | did not appear to induce cytotoxicity | – | – |
| specific, albeit weak, binding to HLA-A2 | YKLVVVGAV [ras4-12(V12)] | – | – | – | A CD8^+ CTL line specific for ras4-12(V12) was then derived | resulted in the induction of MHC class I-restricted CD8^+ CTL responses |

From patent US7709002B1, “Mutated ras peptides for generation of CD8+Cytotoxic T lymphocytes” (The United States of America as represented by the …, priority 1996, dated 2010)
